This passage reports Ki results from patent EP2647638A1, “Substituted tricyclic compounds with activity towards ep1 receptors” (Almirall, S.A., priority 2012, dated 2013).

The test concerns the target T1, human EP1 receptor (Homo sapiens, UniProt P34995).
T1 construct: expressed in transfected cells; host or cells: HEK-293 cell membranes
T1 sequence (P34995 1-402): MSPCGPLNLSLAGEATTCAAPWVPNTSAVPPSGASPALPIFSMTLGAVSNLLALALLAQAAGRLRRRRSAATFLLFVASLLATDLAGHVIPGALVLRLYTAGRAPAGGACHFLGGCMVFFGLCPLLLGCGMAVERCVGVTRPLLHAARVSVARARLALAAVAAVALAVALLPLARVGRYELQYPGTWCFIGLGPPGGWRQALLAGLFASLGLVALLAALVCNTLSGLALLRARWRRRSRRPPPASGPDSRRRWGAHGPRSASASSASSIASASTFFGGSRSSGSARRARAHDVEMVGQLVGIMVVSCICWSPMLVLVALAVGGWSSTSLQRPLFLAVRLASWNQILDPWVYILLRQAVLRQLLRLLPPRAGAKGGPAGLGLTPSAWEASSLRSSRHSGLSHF
Briefly: Human EP1 receptor radioligand binding assay. Conditions: transfected HEK-293 cell membranes, [3H]-PGE2 (10 nM), pH 6.0, 25 °C for 60 minutes. The method, then: To investigate binding properties of EP1 receptor ligands to human EP1 receptor, transfected HEK-293 cell membranes and [3H]-PGE2 (Perkin Elmer) were used. In 96-well plates the assay was carried out with a total reaction volume of 250 µl, containing 25 µl of membrane suspension (30 µg protein/well), 25 µl of [3H]-PGE2 (10 nM) in either absence or presence of 25 µl of either buffer or PGE2 (10 µM) for total and non-specific binding, respectively. Binding buffer contained 10 mM MES, 1 mM MgCl2 and 1 mM EDTA at pH 6.0. Plates were incubated at 25 °C for 60 minutes. After the incubation period, 200 µl of incubate were transferred to MultiScreen HTS, FB plates (Millipore), filtered and plates were washed 6 times with ice-cold 10 mM MES, 1 mM MgCl2 and 1 mM EDTA at pH 6.0. Filters were dried and counted in a MicroBeta scintillation counter (Perkin-Elmer) using EcoScint liquid scintillation cocktail.
Percentage inhibition was calculated relating compounds activity to the 0% inhibition of the wells incubated with 10 nM [3H]-PGE2 alone (total binding) and 100% inhibition of the wells incubated with 10 nM [3H]-PGE2 plus 10 µM PGE2 (non-specific binding). Competition binding curves were carried out by assaying 6 different concentrations with duplicated points. The inhibition constant (Ki) of each compound was calculated by the Cheng-Prusoff equation: Kl = IC50 /(1+⌊L⌋/KD) [formula] where IC50 is the concentration of compound that displaces the binding of radioligand by 50%, [L] is the free concentration of radioligand and KD is the dissociation constant of each radioligand. IC50 values were obtained by fitting the data with non-linear regression using XIFit software (IDBS).
The term Ki denotes the equilibrium dissociation constant of an inhibitor or competing ligand from its target. Read a high Ki as lower affinity. `Cc1cc(C(=O)O)ccc1[C@H]1Nc2ccc(Cl)cc2[C@@H]2OCCC[C@H]12` (racemic) [Example 10, 4-((4aR, 5S, 10bR)-9-chloro-3,4,4a, 5,6, 10b-hexahydro-2H pyrano[3,2-c]quinolin-5-yl)-3-methylbenzoic acid] yielded a Ki of under 100 nM. The result for `O=C(O)c1ccc([C@@H]2Nc3ccc(Br)cc3[C@@H]3OCCC[C@H]23)cc1` [Example 2, 4-((4aR,5R,10bR)-9-bromo-3,4,4a,5,6,10b-hexahydro-2H-pyrano[3,2-c]quinolin-5-yl)benzoic acid] reads over 500 nM; that for `COc1ccc2c(c1)[C@@H]1OCCC[C@@H]1[C@H](c1ccc(C(=O)O)cc1C)N2` [Example 5, 4-((4aR, 5R, 10bR)-3,4,4a, 5,6, 10b-hexahydro-9-methoxy-2H pyrano[3,2-c]quinolin-5-yl)-3-methylbenzoic acid], 100 to 500 nM; that for `Cc1ccc2c(c1)[C@@H]1OCCC[C@@H]1[C@H](c1ccc(C(=O)O)cc1C)N2` [Example 6, 4-((4aR, 5R, 10bR)-3,4,4a, 5,6, 10b-hexahydro-9-methyl-2H pyrano[3,2-c]quinolin-5-yl)-3-methylbenzoic acid], 100 to 500 nM.
